The record followed here is patent US20260285853A1, “COMPOUNDS AND METHODS FOR MODULATING SPLICING” (REMIX THERAPEUTICS INC., priority 2023, published 2026).

Holding throughout (type): cell-based
Assay [1] has as its system HTT mRNA. The assay can be described thus: Splicing RT-qPCR assay (THP), Table 2A. Conditions: Table 2A (THP); for AC50: AJ mRNA increase, read-out: HTT AJ (increase in alternative junction mRNA, AC50); for IC50: CJ mRNA decrease, read-out: HTT CJ (decrease in canonical junction mRNA, IC50). (Quantitative PCR measures a nucleic acid by following its amplification.)
The subject of assay [2] is MYB mRNA. The assay can be described thus: Splicing RT-qPCR assay (THP), Table 2A. Conditions: Table 2A (THP); for AC50: AJ mRNA increase, read-out: MYB AJ (increase in alternative junction mRNA, AC50); for IC50: CJ mRNA decrease, read-out: MYB CJ (decrease in canonical junction mRNA, IC50).
Assay [3] deals with HTT mRNA. The assay is described as follows: Gene panel canonical junction qPCR assay, decrease in CJ mRNA, Table 3. The settings on record: decrease in canonical junction (CJ) mRNA, gene panel qPCR, Table 3. The essentials:
(§1)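 IC50 is the concentration giving 50% response in decrease of the canonical junction transcript, fitted with a 4-parameter logistic equation. Transcripts were quantified by RT-qPCR in A673 or K562 cells after 24 h exposure to compounds dosed up to 10 uM in 3-fold steps.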

In assay [4] the test system is MYB mRNA. The description is as above. Conditions: decrease in canonical junction (CJ) mRNA, gene panel qPCR, Table 3. The essentials: as §1
Assay [5] relates to SH-SY5Y (human neuroblastoma) cells. The assay can be described thus: Cell viability, Cell Titer Glo 2.0 assay. Conditions: read-out: Viability SHSY5Y.3 GI50. The essentials:
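Steps: serial DMSO dilution of compound, 1:100 dilution into medium, addition to cells (0.1% DMSO final). Incubate 72 h at 37 °C, 5% CO2. Assay with CellTiter-Glo 2.0 reagent.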
On the technique in general: Cellular ATP, detected with luciferase, serves as a proxy for viable cell number.

Structures are written as SMILES. Structures can show the parent of a compound that is named as a salt. Some results are limits rather than exact numbers.

Consider `COc1c(NC(=O)c2c(F)cc(N3CC[C@@H](NC4CC4)C4(CC4)C3)c3cn(C)nc23)cn2cc(C)nc2c1F` [Compound 368, 4-[(8R)-8-(cyclopropylamino)-5-azaspiro[2.5]octan-5-yl]-6-fluoro-N-(8-fluoro-7-methoxy-2-methyl-imidazo[1,2-a]pyridin-6-yl)-2-methyl-indazole-7-carboxamide], for which the AC50 in assay [1] was 1000 to 10000 nM; in assay [2], less than 100 nM. The IC50 in assay [1] is 1000 to 10000 nM; in assay [2], less than 100 nM; in assay [3], 1000 to 10000 nM; in assay [4] it was less than 100 nM. The GI50 in assay [5] is 100 to 1000 nM.

As to `COc1c(NC(=O)c2c(F)cc(N3CCC(NC4CC4)C4(CC4)C3)c3cn(C)nc23)cn2cc(C)nc2c1F` (stereo not drawn) [Compound 369, 4-[8-(cyclopropylamino)-5-azaspiro [2.5]octan-5-yl]-6-fluoro-N-(8-fluoro-7-methoxy-2-methyl-imidazo[1,2-a]-pyridin-6-yl)-2-methyl-indazole-7-carbox-amide], the AC50 in assay [1] was 100 to 1000 nM; in assay [2], less than 100 nM. Also, the IC50 in assay [1] was 1000 to 10000 nM; in assay [2], less than 100 nM; in assay [3] it was 1000 to 10000 nM; in assay [4], less than 100 nM. Moreover, the GI50 in assay [5] lay in the range of 100 to 1000 nM.

On to `Cc1cn2cc(NC(=O)c3ccc(N4CCC(N[C@@H]5C[C@H]5O)CC4)c4cn(C)nc34)cc(F)c2n1` [Compound 370, N-(8-fluoro-2-methylimidazo[1,2-a]pyridin-6-yl)-4-(4-(((1R,2R)-2-hydroxycyclopropyl)amino)piperidin-1-yl)-2-methyl-2H-indazole-7-carboxamide hydrochloride], for which the AC50 in assay [1] is 1000 to 10000 nM; in assay [2] it was less than 100 nM. In addition, the IC50 in assay [1] fell in the range of 1000 to 10000 nM; in assay [2], 100 to 1000 nM; in assay [3], 1000 to 10000 nM; in assay [4], 100 to 1000 nM. The GI50 in assay [5] is 1000 to 10000 nM.

For the compound `Cc1cn2cc(NC(=O)c3ccc(N4CCC(N[C@@H]5C[C@@H]5O)CC4)c4cn(C)nc34)cc(F)c2n1` [Compound 371, N-(8-fluoro-2-methyl-imidazo-[1,2-a]pyridin-6-yl)-4-(4-(((1R,2S)-2-hydroxy-cyclopropyl)-amino)piperidin-1-yl)-2-methyl-2H-indazole-7-carboxamide hydrochloride], the AC50 is 1000 to 10000 nM in assay [1] and less than 100 nM in assay [2]. The IC50 lay within 1000 to 10000 nM in assay [1], 100 to 1000 nM in assay [2], 1000 to 10000 nM in assay [3] and 100 to 1000 nM in assay [4]. Also, in assay [5], the GI50 was in the range of 1000 to 10000 nM.

For `CCNC1(C)CCN(c2cc(F)c(C(=O)Nc3cn4cc(C)nc(C)c4n3)c3nn(C)cc23)CC1` [Compound 375, N-(6,8-dimethylimidazo[1,2-a]pyrazin-2-yl)-4-[4-(ethylamino)-4-methyl-1-piperidyl]-6-fluoro-2-methyl-indazole-7-carboxamide], the AC50 is 1000 to 10000 nM in assay [1] and less than 100 nM in assay [2]. For the same compound, the IC50 in assay [1] was 1000 to 10000 nM; in assay [2], less than 100 nM; in assay [3] it was 1000 to 10000 nM; in assay [4], less than 100 nM. Moreover, in assay [5], the concentration for 50% growth inhibition (GI50) fell in the range of 100 to 1000 nM.

For the compound `C#CCCC1(CCN2CCN(c3ccc(C(=O)Nc4cc(F)c5nc(C)cn5c4)c4nn(C)cc34)CC2)N=N1` [Compound 376, 4-(4-(2-(3-(but-3-yn-1-yl)-3H-diazirin-3-yl)ethyl)piperazin-1-yl)-N-(8-fluoro-2-methyl-imidazo-[1,2-a]pyridin-6-yl)-2-methyl-2H-indazole-7-carboxamide bis(2,2,2-trifluoroacetate)], the half-maximal activity concentration (AC50) in assay [1] was more than 10000 nM; in assay [2], 100 to 1000 nM. Further, the IC50 in assay [1] lay in the range of 1000 to 10000 nM; in assay [2], 100 to 1000 nM; in assay [3], 1000 to 10000 nM; in assay [4], 100 to 1000 nM. Moreover, the GI50 in assay [5] was 1000 to 10000 nM.

The term AC50 denotes the concentration giving half of the maximal activity seen. One may read the IC50 as the concentration at which inhibition is half-maximal. As usually defined, the GI50 is the concentration that inhibits growth by half.
